*: point of attachment. ACC = NC(=O)Cc1cc(=O)oc2cc(N*)ccc12
Experiments:
human DUB UCH-L3 [1] = molecular target: T1, human DUB UCH-L3 (Homo sapiens, UniProt P15374); assay type: biochemical
SARS-CoV-2 PLpro [2] = molecular target: T2, SARS-CoV-2 PLpro (Severe acute respiratory syndrome coronavirus 2, UniProt P0DTD1)
human DUB UCH-L3 [3] = molecular target: T1, human DUB UCH-L3; assay type: biochemical; remark: listed apart in the source
[4] = system: human DUBs in HeLa lysates; assay type: biochemical
SARS-CoV-2 PLpro [5] = molecular target: T2, SARS-CoV-2 PLpro; remark: listed apart in the source

T1 sequence (P15374 whole entry, looked up): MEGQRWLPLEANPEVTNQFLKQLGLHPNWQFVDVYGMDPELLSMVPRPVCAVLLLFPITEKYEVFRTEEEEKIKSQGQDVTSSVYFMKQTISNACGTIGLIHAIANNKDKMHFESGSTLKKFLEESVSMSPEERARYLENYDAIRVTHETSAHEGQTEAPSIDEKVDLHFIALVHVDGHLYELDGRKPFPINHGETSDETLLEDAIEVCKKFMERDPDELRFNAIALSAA

Substance | substrate recognition (hydrolysis rate, RFU/s) (human DUB UCH-L3 [1]) | substrate recognition (hydrolysis rate, RFU/s) (SARS-CoV-2 PLpro [2]) | inhibition of DUB activity (residual activity) (human DUB UCH-L3 [3]) | Ub-VME cross-linking profile of HeLa lysates on titration of inhibitor [4] | inhibition of DUB activity (residual activity) (SARS-CoV-2 PLpro [5])
Ac-LRGG-{ACC} [Ac-LRGG-ACC] | recognized | recognized | – | – | –
Ac-Abu(Bth)-Dap-Gly-Gly-VME [VIR250] | – | – | practically no inhibition | unaltered | robustly inhibit
